Usually Ki stands for a dissociation constant, usually derived from enzyme kinetics or from competition with a known ligand. The IC50 is the concentration needed to halve the response being measured.

SMILES strings stand for the structures.

Experiment [1] deals with T1, Bcl-2-like protein 1 (Homo sapiens, UniProt Q07817). Briefly: Reversible inhibition of human recombinant N-terminal His-tagged Bcl-xL (1 to 209) expressed in Escherichia coli BL21(DE3) after 30 to 120 mins by TR-FRET assay in presence of F-bid. Background: In TR-FRET formats the signal depends on donor and acceptor labels being close together.
T1 sequence (Q07817 whole entry): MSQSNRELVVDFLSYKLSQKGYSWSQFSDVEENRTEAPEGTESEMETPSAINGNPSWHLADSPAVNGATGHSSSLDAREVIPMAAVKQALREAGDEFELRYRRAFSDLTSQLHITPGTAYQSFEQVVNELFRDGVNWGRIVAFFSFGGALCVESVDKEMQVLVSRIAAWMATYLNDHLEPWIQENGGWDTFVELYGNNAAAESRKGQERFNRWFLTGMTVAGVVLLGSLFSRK
Experiment [2] addresses T2, Induced myeloid leukemia cell differentiation protein Mcl-1 (Homo sapiens, UniProt Q07820). Briefly: Displacement of F-bid from human recombinant N-terminal His-tagged Mcl-1 (1 to 319) expressed in Escherichia coli BL21(DE3) after 120 mins by TR-FRET assay.
Experiment [3] concerns the target T2, Induced myeloid leukemia cell differentiation protein Mcl-1. Nature of the experiment: Displacement of F-bid from human recombinant N-terminal His-tagged Mcl-1 (1 to 319) expressed in Escherichia coli BL21(DE3) after 2 hrs by fluorescence polarization assay. (In general: In fluorescence polarisation assays a small probe gives low polarisation when free and higher when bound to something large.)

For experiment [4], the target named is T1, Bcl-2-like protein 1. Briefly: Displacement of F-bid from human recombinant N-terminal His-tagged Bcl-xL (1 to 209) expressed in Escherichia coli BL21(DE3) after 2 hrs by fluorescence polarization assay.
Experiment [5] has as its target T1, Bcl-2-like protein 1. Briefly: Displacement of F-bid from human recombinant N-terminal His-tagged Bcl-xL (1 to 209) expressed in Escherichia coli BL21(DE3) after 120 mins by TR-FRET assay.
The target of experiment [6] is T1, Bcl-2-like protein 1. Nature of the experiment: Displacement of F-bid from human recombinant N-terminal His-tagged Bcl-xL (1 to 209) expressed in Escherichia coli BL21(DE3) after 30 mins by TR-FRET assay.

T2 sequence (Q07820 whole entry): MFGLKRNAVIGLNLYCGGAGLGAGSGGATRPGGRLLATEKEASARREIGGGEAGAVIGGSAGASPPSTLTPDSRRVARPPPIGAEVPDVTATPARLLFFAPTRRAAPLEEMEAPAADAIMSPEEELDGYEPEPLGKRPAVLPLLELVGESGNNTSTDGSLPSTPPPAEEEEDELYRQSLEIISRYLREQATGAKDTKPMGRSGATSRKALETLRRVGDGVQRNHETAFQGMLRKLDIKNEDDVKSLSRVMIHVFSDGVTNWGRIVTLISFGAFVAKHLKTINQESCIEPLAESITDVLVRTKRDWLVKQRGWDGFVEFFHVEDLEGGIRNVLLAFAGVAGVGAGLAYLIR

Regarding `O=C(CC(Cc1ccc(Cl)cc1)C(=O)O)c1ccc(C2CCCCC2)cc1` (centres undefined), the Ki at Bcl-2-like protein 1 [1] is 9 µM; in experiment [2], 20 µM.
As to `O=C(CC(Sc1ccc(Cl)cc1)C(=O)O)c1ccc(C2CCCCC2)cc1` (centres undefined), the Ki in experiment [3] amounted to 14 µM; at Bcl-2-like protein 1 [1] it was 13 µM; in experiment [2], 12 µM; at Bcl-2-like protein 1 [4], 4.7 µM; at Bcl-2-like protein 1 [5], 12 µM. For the same molecule, the IC50 on Bcl-2-like protein 1 [5] is 19 µM; on Bcl-2-like protein 1 [6] it was 18 µM.

For the origin of these results see ChEMBL document CHEMBL3352577, “A simple and widely applicable hit validation strategy for protein-protein interaction inhibitors based on a quantitative ligand displacement assay” (Bioorg Med Chem Lett, 2014).
